The source of these data is US20170066717A1, “NEW PHENYLAZETIDINECARBOXYLATE OR -CARBOXAMIDE COMPOUNDS” (INVENTIVA, priority 2014, published 2017).

Each structure is given as a SMILES string.

Data set [1] can be described thus: Brain penetration in rats after intravenous administration. It counts as in vivo. The following applies: rat; for Kp at 4 h: male, Wistar, intravenous, 4 mg/kg, ratio of Cmax brain to Cmax plasma after the 4 hours of infusion, rats, read-out: Kp (partition coefficient between the brain and the plasma); for Cmax at 4 h: male Wistar rats, 4 mg/kg iv infusion into the jugular vein for 4 hours, plasma at end of infusion. In short, it runs like this: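 Male Wistar rats (250-300 g, fed, n=4) received test compound by 4-hour jugular vein infusion at 4 mg/kg in 2% Cremophor EL/0.9% NaCl. At the end of infusion, plasma and brain homogenate were analysed by LC-MS/MS; Kp is the brain-to-plasma concentration ratio after 4 hours.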

The target of the next data set is T1, NURR-1/RXRα (Homo sapiens, UniProt P19793).
T1 construct: expressed in transfected cells; host or cells: Cos-7 cells
The data set is described as follows: Transactivation test, NURR-1-Gal4/RXRα, luciferase reporter in Cos-7 cells. Conditions: for Emax: COS-7, induction level relative to reference XCT0135908 at 2×10^−5 M (=100%), read-out: hNurr1_RXRaFL Emax (%); for EC50: Cos-7 cells, NURR-1-Gal4/RXRα, luciferase reporter, read-out: hNurr1_RXRaFL EC50. It counts as cell-based. On the technique in general: Reporter assays use an easily measured gene product as a stand-in for the process of interest.

Data set [2] relates to dopaminergic neurons of primary culture of rat embryo mesencephalon treated with MPP+. As to the kind of experiment: Neuroprotection in primary culture of rat embryo mesencephalon treated with MPP+ (count of tyrosine hydroxylase expressing cells). The following applies: recombinant human BDNF 10 ng/mL = 100%, 2 days with MPP+. It counts as cell-based. An outline of the steps:
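Rat embryo (E15) mesencephalon cultures, 5 days, then MPP+ with or without compound on day 6 for 2 days. Tyrosine hydroxylase-immunolabelled cells counted by image analysis; activity expressed as percent of recombinant human BDNF (10 ng/mL) reference, set at 100%.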

A short description of data set [3]: Plasma pharmacokinetics in mice after oral administration. It counts as in vivo. The following applies: mouse, male C57/Bl6 mice, oral 10 mg/kg; for AUC: sampling 15 min to 7 h, log-linear trapezoidal method, read-out: AUCplasma; for Cmax: suspension in 1% methylcellulose/0.1% Poloxamer 188. In short, it runs like this: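 Male C57/B16 mice (25-30 g, fed, 9 per dose) received 10 mg/kg by oral gavage as a suspension in 1% methylcellulose 400 cps/0.1% Poloxamer 188/water. Plasma was sampled at 15 min, 30 min, 1 h, 3 h and 7 h and quantified by LC-MS/MS after protein precipitation. Parameters were derived non-compartmentally, with AUC by the log-linear trapezoidal method.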

T1 sequence (P19793 whole entry): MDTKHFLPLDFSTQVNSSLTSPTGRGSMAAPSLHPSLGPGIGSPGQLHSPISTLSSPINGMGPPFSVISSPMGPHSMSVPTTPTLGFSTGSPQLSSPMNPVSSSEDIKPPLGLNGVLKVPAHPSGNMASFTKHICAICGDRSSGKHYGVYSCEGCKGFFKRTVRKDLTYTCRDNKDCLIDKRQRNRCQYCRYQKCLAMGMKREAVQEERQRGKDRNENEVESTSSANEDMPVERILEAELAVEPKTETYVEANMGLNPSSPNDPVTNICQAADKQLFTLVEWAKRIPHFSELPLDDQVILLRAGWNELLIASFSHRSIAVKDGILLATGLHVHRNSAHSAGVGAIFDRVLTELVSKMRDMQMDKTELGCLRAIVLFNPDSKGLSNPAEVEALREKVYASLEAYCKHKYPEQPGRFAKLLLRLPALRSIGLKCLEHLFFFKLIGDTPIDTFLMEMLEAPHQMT
T1 sequence (P43354 whole entry partner): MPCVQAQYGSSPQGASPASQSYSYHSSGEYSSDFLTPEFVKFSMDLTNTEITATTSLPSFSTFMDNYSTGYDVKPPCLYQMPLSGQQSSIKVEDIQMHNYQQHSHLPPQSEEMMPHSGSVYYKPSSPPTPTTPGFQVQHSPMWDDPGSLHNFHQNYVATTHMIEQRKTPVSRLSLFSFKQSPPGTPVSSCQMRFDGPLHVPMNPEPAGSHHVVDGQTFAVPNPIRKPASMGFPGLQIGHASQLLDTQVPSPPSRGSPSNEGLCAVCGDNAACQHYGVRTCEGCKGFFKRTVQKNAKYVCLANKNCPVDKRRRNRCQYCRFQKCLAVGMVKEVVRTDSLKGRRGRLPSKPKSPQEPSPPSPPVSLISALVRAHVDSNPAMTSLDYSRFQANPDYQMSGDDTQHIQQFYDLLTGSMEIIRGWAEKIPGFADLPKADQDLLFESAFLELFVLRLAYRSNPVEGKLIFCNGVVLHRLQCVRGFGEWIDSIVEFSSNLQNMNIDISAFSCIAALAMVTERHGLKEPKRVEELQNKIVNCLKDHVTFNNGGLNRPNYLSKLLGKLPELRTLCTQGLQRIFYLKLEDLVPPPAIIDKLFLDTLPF
T1 sequence (P04386 1-147 partner limits assumed): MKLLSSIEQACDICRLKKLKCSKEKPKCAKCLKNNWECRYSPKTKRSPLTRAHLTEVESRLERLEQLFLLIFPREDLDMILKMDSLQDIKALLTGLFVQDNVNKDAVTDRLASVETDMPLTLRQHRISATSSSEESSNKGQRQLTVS

Broadly, the Kp is the ratio of the level in a tissue or fluid to that in plasma or blood. One may read the Cmax as the highest concentration seen after dosing. One may read the Emax as the greatest response seen or fitted, relative to the assay's reference. A word on the EC50: it is the concentration that produces a half-maximal response. As for `CC1(C)CCC(C)(C)c2cc(-c3cccc(N4CC(C(=O)O)C4)c3)ccc21` [Example 10, 1-[5-(1,1,4,4-tetrametyltetralin-6-yl)phenyl]azetidine-3-carboxylic acid], in data set [1], the Kp at 4 h came to 1.28 and the Cmax at 4 h turned out to be 4300 ng/mL. In addition, at NURR-1/RXRα, the Emax worked out at 84% and the EC50 amounted to 8 nM. Also, the “percentage of activity relative to the BDNF reference” value in data set [2] (compound 1 μM) is on record as 44%. For the same molecule, in data set [2] (compound 10 μM), the “percentage of activity relative to the BDNF reference” value was found to be 74%. Also, in data set [3], the AUC was found to be 25700 ng·h/mL and the highest level (Cmax) was 8760 ng/mL.

For `CC(C)CC1CN(c2cccc(N3CC(C(=O)O)C3)c2)c2ccc(C(F)(F)F)cc2O1` (stereo not shown) [Example 118, 1-[3-[2-isobutyl-7-(trilfuoromethyl)-2,3-dihydro-1,4-benzoxazin-4-yl]phenyl]azetidine-3-carboxylic acid], in data set [1], the partition ratio (Kp) at 4 h was 0.35 and the highest concentration (Cmax) at 4 h is 3480 ng/mL. On NURR-1/RXRα, the Emax was found to be 83% and the concentration giving a half-maximal response (EC50) was 31 nM. The “percentage of activity relative to the BDNF reference” value in data set [2] (compound 1 μM) is 81%. Moreover, in data set [2] (compound 10 μM), the “percentage of activity relative to the BDNF reference” value is 61%. For the same molecule, in data set [3], the AUC is 9820 ng·h/mL and the concentration peaked (Cmax) at 4600 ng/mL.
